In patent US20240400546A1, “COMPOUNDS AND USES THEREOF” (JANSSEN PHARMACEUTICA NV, priority 2016, published 2024):

target: T1, SCD1 (Homo sapiens, UniProt O00767); experiment: Growth inhibition of humanized yeast expressing SCD1 as sole desaturase; type: cell-based; conditions: humanized yeast expressing SCD1
T1 construct: host or cells: S. cerevisiae ole1Δ strain, plasmid pRS316 with TDH3 promoter and CYC1 terminator
T1 sequence (O00767 1-359): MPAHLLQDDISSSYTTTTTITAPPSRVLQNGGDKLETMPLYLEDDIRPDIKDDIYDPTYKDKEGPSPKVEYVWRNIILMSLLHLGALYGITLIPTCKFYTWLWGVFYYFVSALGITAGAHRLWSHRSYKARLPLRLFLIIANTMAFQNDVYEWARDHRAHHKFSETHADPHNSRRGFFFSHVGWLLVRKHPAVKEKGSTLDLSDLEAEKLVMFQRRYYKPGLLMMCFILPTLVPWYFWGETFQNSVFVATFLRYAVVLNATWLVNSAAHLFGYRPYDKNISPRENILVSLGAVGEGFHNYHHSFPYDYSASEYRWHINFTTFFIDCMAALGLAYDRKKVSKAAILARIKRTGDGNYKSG
Procedure: Strain ole1Δ (yeast ole1 deletion mutant) was constructed by deleting OLE1 with NAT-MX6 in BY4741, amplifying the deletion cassette from the genomic DNA of the resulting strain with primers flanking the ORF by 1000 bp upstream and downstream, transforming the resulting deletion cassette into W303 pdr1Δ pdr3Δ, and plating transformants on YPD media containing G418 (200 μg/mL) and nourseothricin (100 μg/mL) with 0.01% TWEEN®-20 and 0.5 mM oleic and palmitoleic acids.
The coding sequence of yeast OLE1 was also cloned into this plasmid). These clones were then transformed into the ole1Δ strain and plated on CSM-Ura media (CSM lacking uracil) with 2% glucose (w/v) and independent colonies were isolated and amplified.
All compound profiling experiments were performed using the same basic protocol. Different genetic backgrounds (e.g., gene deletions) or conditions (e.g., addition of oleic and palmitoleic acid) were replaced as indicated below.
Yeast were cultured using standard techniques in complete synthetic media (CSM) and yeast nitrogen base supplemented with 2% (w/v) carbon source (glucose, raffinose, or galactose) to regulate the expression of the toxic disease protein. An initial starter culture was inoculated in 3 mL CSM-Glucose media and incubated overnight in a 30° C. shaker incubator (225 rpm). Saturated morning cultures were then diluted 1:20 in fresh CSM-Raffinose media and grown for 6 h to an OD600 (optical density) of ˜0.4-0.8 at 30° C. with shaking.
Compound administration was performed in two separate steps. First, 15 μL of CSM-Galactose (induces expression of toxic protein) was dispensed into clear 384 well assay plates using a MULTIDROP™ Combi reagent dispenser. […] The cultures described above were then diluted to a 2× concentration (0.03 and 0.08 for alpha-synuclein and ApoE, final OD600 of 0.015 and 0.04) in CSM-Galactose. For wild-type and Ole1/SCD1/SCD5 plasmid-containing strains, the 2× cell density was 0.02. […] For 96-well assays (FIGS. 1A and 1B), compound dilutions in DMSO were generated in 96 well plates and 1 μL was manually pipetted into 96 well clear bottom assay plates.
For experiments using a plasmid-borne copy of Ole1, SCD1, or SCD5 (FIGS. 3B, 6, and 7), media lacking uracil (SX-Ura, where X is glucose, raffinose, or galactose), was used for all steps of the compound profiling protocol to ensure its maintenance throughout the assay.
After yeast delivery, assay plates were incubated under humidified conditions at 30° C. for 24 to 40 h. ApoE4 rescue experiments were stopped at 24 h, aSyn experiments at 40 h, Ole1 at 24 h, and SCD1/SCD5 at 40 h. The growth of yeast was monitored by reading the OD600 of each well using a microplate reader (Perkin Elmer EnVision™).

| SMILES | IC50 [µM] |
| --- | --- |
| COc1ccc(-c2noc(CCNC(=O)CNC(=O)c3ccccc3)n2)cc1OC [Compound 484] | > 45 |
| O=C(CNC(=O)c1ccccc1)NCCc1nc(-c2ccccc2)no1 [Compound 485] | > 45 |
| COc1ccc(-c2noc(CCNC(=O)COc3cc(O)c4c(c3)OC(C)(C)CC4=O)n2)cc1OC [Compound 486] | > 45 |
| CC1(C)CC(=O)c2c(O)cc(OCC(=O)NCCc3nc(-c4ccccc4)no3)cc2O1 [Compound 487] | > 45 |
| COc1ccc(-c2noc(C3CCNCC3)n2)cc1OC [Compound 488] | > 45 |
| COc1cccc(-c2noc(C3CC(=O)N(c4ccc(C)c(C)c4)C3)n2)c1 (centres unmarked) [Compound 489] | 41 |
| CCN1C(=O)COc2ccc(-c3noc(C4(c5ccc(OC)cc5)CC4)n3)cc21 [Compound 491] | > 45 |
| CCN(Cc1nc(-c2ccc(OC)c(OC)c2)no1)C(=O)Cc1ccccc1 [Compound 492] | > 45 |
| CCNCc1nc(-c2ccc3c(c2)N(CC)C(=O)CO3)no1 [Compound 493] | > 45 |
| CCN(Cc1nc(-c2ccc3c(c2)N(CC)C(=O)CO3)no1)C(=O)Cc1cccc2ccccc12 [Compound 494] | > 45 |

same assay, conditions: humanized yeast expressing human SCD1

| SMILES | IC50 [µM] |
| --- | --- |
| Cn1ncc2ccc(-c3noc(C4CCN(C(=O)OC(C)(C)C)CC4)n3)cc21 [Compound 359] | > 45 |
| CC(C)(C)OC(=O)N1CCC(c2nc(-c3ccc4cnn(C5CC5)c4c3)no2)CC1 [Compound 360] | > 45 |
| CCOC(=O)N1CCC(c2nc(-c3ccc4cnn(C(C)C)c4c3)no2)CC1 [Compound 361] | > 45 |
| CC(C)n1ncc2ccc(-c3noc(N4CCN(C(=O)c5ccccc5)CC4)n3)cc21 [Compound 362] | > 45 |
| CC(C)n1ncc2ccc(-c3noc(C4CCN(C(=O)c5ccc(Cl)cc5)CC4)n3)cc21 [Compound 363] | > 45 |
| CC(C)n1ncc2ccc(-c3noc(N4CCN(C(=O)c5ccccc5Cl)CC4)n3)cc21 [Compound 364] | > 45 |
| Cc1nn(C)c2cc(-c3noc(C4CN(C(=O)OC(C)(C)C)C4)n3)ccc12 [Compound 365] | > 45 |
| CC(C)n1ncc2ccc(-c3noc(N4CCN(C(=O)CC5(C)CC5)CC4)n3)cc21 [Compound 495] | > 45 |
| CC(C)n1ncc2ccc(-c3noc(N4C[C@H]5CN(C(=O)CC(C)(C)C)C[C@H]5C4)n3)cc21 [Compound 497] | > 45 |
| CC(C)n1ncc2ccc(-c3noc([C@@H]4[C@@H]5CN(C(=O)OC(C)(C)C)C[C@@H]54)n3)cc21 [Compound 498] | > 45 |
| CC(C)n1ncc2ccc(-c3nc(C4CCN(C(=O)c5ccccn5)CC4)no3)cc21 [Compound 499] | > 45 |
| Cc1nn(C)c2cc(-c3noc(C4CCN(C(=O)CC5CN(C(=O)OC(C)(C)C)C5)CC4)n3)ccc12 [Compound 502] | > 45 |
| Cc1nn(C)c2cc(-c3nsc(C4CCN(C(=O)OC(C)(C)C)CC4)n3)ccc12 [Compound 503] | > 45 |
| CC(C)n1ncc2ccc(-c3nc(C4CCN(C(=O)c5ccc(Cl)cc5)CC4)no3)cc21 [Compound 505] | > 45 |
| CC(C)n1ncc2ccc(-c3nc(C4CCN(C(=O)c5cccc(F)c5)CC4)no3)cc21 [Compound 506] | > 45 |
| CC(C)OC(=O)N1CCC(c2nc(-c3ccc4oc(=O)n(C(C)C)c4c3)no2)CC1 [Compound 507] | > 45 |
| CC(C)n1ncc2ccc(-c3noc(C4=C(F)CN(C(=O)OC(C)(C)C)CC4)n3)cc21 [Compound 510] | > 45 |
| CC(C)n1ncc2ccc(-c3noc(C4CCN(C(=O)[C@@H]5CC(=O)N(c6cccc(C#N)c6)C5)CC4)n3)cc21 [Compound 528] | > 45 |
| CC(C)n1ncc2ccc(-c3noc(C4CCN(C(=O)[C@H]5CC(=O)N(c6cccc(C#N)c6)C5)CC4)n3)cc21 [Compound 529] | > 45 |
| CC(C)n1ncc2ccc(-c3noc(N4C[C@@H]5CNC[C@H]5C4)n3)cc21 [Compound 530] | > 45 |
| CC(C)n1ncc2ccc(-c3noc(C4CCN(C(=O)c5ccccc5F)CC4)n3)cc21 [Compound 532] | > 45 |
| CC(C)n1ncc2ccc(-c3noc(C4CCN(C(=O)c5ccc(Cl)cc5F)CC4)n3)cc21 [Compound 533] | > 45 |
| CC(C)n1ncc2ccc(N3CC4(CCN(C(=O)c5ccccc5Cl)CC4)C3)cc21 [Compound 534] | > 45 |
| CC(=O)N[C@H]1CC[C@H](c2nc(-c3ccc4cnn(C(C)C)c4c3)no2)CC1 [Compound 535] | > 45 |
| CC(C)n1ncc2ccc(-c3noc([C@H]4CC[C@@H](N)CC4)n3)cc21 [Compound 536] | > 45 |

| SMILES | IC50 [µM] |
| --- | --- |
| CC(C)n1ncc2ccc(-c3noc([C@H]4CC[C@H](NC(=O)OC(C)(C)C)CC4)n3)cc21 [Compound 537] | > 45 |
| CC(C)n1ncc2ccc(N3CC4(CCNCC4)C3)cc21 [Compound 538] | > 45 |
| COc1ccc(S(=O)(=O)N2CCC(c3nc(-c4ccc5cnn(C(C)C)c5c4)no3)CC2)c(Br)c1 [Compound 539] | > 45 |
| CC(C)n1ncc2ccc(-c3noc(C4CCN(S(=O)(=O)c5ccccc5Cl)CC4)n3)cc21 [Compound 540] | > 45 |
| CC(C)n1ncc2ccc(-c3noc(C4CCN(C(=O)c5ccc(Cl)c(F)c5)CC4)n3)cc21 [Compound 541] | > 45 |
| CC(C)n1ncc2ccc(-c3noc(C4CCN(C(=O)c5ccc(F)cc5)CC4)n3)cc21 [Compound 544] | > 45 |
| Cn1ncc2ccc(-c3noc(N4CCN(C(=O)OC(C)(C)C)CC4)n3)cc21 [Compound 545] | > 45 |
| CC(C)n1ncc2ccc(-c3nc(C4CCN(C(=O)CC5(C)CC5)CC4)no3)cc21 [Compound 546] | > 45 |
| CC(C)n1ncc2ccc(-c3nc(N4CCN(C(=O)OC(C)(C)C)CC4)no3)cc21 [Compound 548] | > 45 |
| CC(C)n1ncc2ccc(-c3noc(C4CCN(C(=O)c5nccs5)CC4)n3)cc21 [Compound 549] | > 45 |
| COC(=O)N[C@H]1CC[C@@H](c2nc(-c3ccc4c(C)nn(C)c4c3)no2)CC1 [Compound 550] | > 45 |
| CC(C)n1ncc2ccc(-c3noc(N4CC5(CCN(C(=O)OC(C)(C)C)CC5)C4)n3)cc21 [Compound 555] | > 45 |
| CC(C)n1ncc2ccc(-c3noc(C4CCN(C(=O)CNC(=O)c5cccc(C#N)c5)CC4)n3)cc21 [Compound 556] | > 45 |
| O=C(CC1CC1)N1CCC(c2nc(-c3ccc4cnn(C5COC5)c4c3)no2)CC1 [Compound 558] | > 45 |
| CC1(CC(=O)N2CCC(c3nc(-c4ccc5cnn(C6COC6)c5c4)no3)CC2)CC1 [Compound 559] | > 45 |
| CCc1cnc(N2CCC(c3nc(-c4ccc5c(C)nn(C)c5c4)no3)CC2)cn1 [Compound 560] | > 45 |
| COC(=O)N1CCC(c2nc(-c3ccc4cnn(C(F)F)c4c3)no2)CC1 [Compound 561] | > 45 |
| O=C(c1ccccc1Cl)N1CCC(c2nc(-c3ccc4cnn(C5COC5)c4c3)no2)CC1 [Compound 562] | > 45 |
| O=C(c1ccccc1)N1CCC(c2nc(-c3ccc4cnn(C5COC5)c4c3)no2)CC1 [Compound 564] | > 45 |
| CC(C)CS(=O)(=O)N1CCC(c2nc(-c3ccc4cnn(C(C)C)c4c3)no2)CC1 [Compound 565] | > 45 |
| COC(=O)N1C[C@H]2CN(c3nc(-c4ccc5cnn(C(C)C)c5c4)no3)C[C@@H]2C1 [Compound 568] | > 45 |
| CC(C)n1ncc2ccc(-c3noc(N4C[C@@H]5CN(C(=O)CC(C)(C)C)C[C@H]5C4)n3)cc21 [Compound 569] | > 45 |
| COC(=O)N1CCC2(CC1)CN(c1nc(-c3ccc4cnn(C(C)C)c4c3)no1)C2 [Compound 570] | > 45 |
| CC(=O)N1CCC2(CC1)CN(c1nc(-c3ccc4cnn(C(C)C)c4c3)no1)C2 [Compound 571] | > 45 |
